Patent US6355799B1, “Substituted benzene compounds, process for their preparation, and herbicidal and defoliant compositions containing them” (ISK Americas Incorporated, priority 1997, dated 2002)

Legend:
Format in all cases: in vivo
[1] = tested on: upland rice (Oryza sp., var. Tebonnet, RICE); experiment: Post-emerge test, crop safety; details: post-emerge, 14 days after application, rating scale 0-100
Method in brief: (§1)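 Rating: 0–100 visual injury, 14 DAA. Application: acetone, 187 l/ha, 15–1000 g ai/ha, flat-fan track sprayer with nozzle 40–45 cm above soil or canopy. Post-emerge runs used 0.25% v/v surfactant on 2–3 leaf plants.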

[2] = tested on: field corn (Zea mays L., var. Dekalb 535, CORN); experiment: Post-emerge test, crop safety; details: post-emerge, 14 days after application, rating scale 0-100
Method in brief: as §1

[3] = tested on: upland rice (Oryza sp., var. Tebonnet, RICE); experiment: Pre-emerge test, crop safety; details: crop damage rating 0-100, 14 days after application
Method in brief: (§2)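 Compounds in acetone were track-sprayed at 187 l/ha, 15–1000 g ai/ha, onto sandy loam pots. Pre-emerge seeds were sown one day before spraying, with surface watering afterwards. Post-emerge plants were at the 2–3 leaf stage and sprayed with 0.25% v/v non-ionic surfactant. Injury was rated 0–100 at 14 days.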

[4] = tested on: field corn (Zea mays L., var. Dekalb 535, CORN); experiment: Pre-emerge test, crop safety; details: crop damage rating 0-100, 14 days after application
Method in brief: as §2

[5] = tested on: large crabgrass (Digitaria sanguinalis, DIGSA); experiment: Post-emerge test, greenhouse herbicide activity screening; details: post-emerge, 14 days after application, rating scale 0-100
Method in brief: (§3)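 Sandy loam pots; pre-emerge: sown 1 d pre-spray, surface-watered after, then bottom-watered. Post-emerge: sown 8–21 d before, 2–3 leaf stage, + 0.25% v/v NIS, bottom-watered. Acetone, 187 l/ha track spray, 15–1000 g ai/ha. 0–100 injury score, day 14.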

[6] = tested on: ivyleaf morningglory (Ipomoea hederacea, IPOHE); experiment: as above; details: post-emerge, 14 days after application, rating scale 0-100
Method in brief: as §3

[7] = tested on: barnyardgrass (Echinochloa crus-galli, ECHCG); experiment: as above; details: post-emerge, 14 days after application, rating scale 0-100
Method in brief: as §3

[8] = tested on: redroot pigweed (Amaranthus retroflexus, AMARE); experiment: as above; details: post-emerge, 14 days after application
Method in brief: as §3

[9] = tested on: johnsongrass (Sorghum halepense, SORHA); experiment: as above; details: post-emerge, 14 days after application, rating scale 0-100
Method in brief: as §3

[10] = tested on: velvetleaf (Abutilon theophrasti, ABUTH); experiment: as above; details: post-emerge, 14 days after application, rating scale 0-100
Method in brief: as §3

[11] = tested on: sicklepod (Cassia obtusifolia, CASOB); experiment: as above; details: post-emerge, 14 days after application, rating scale 0-100
Method in brief: as §3

[12] = tested on: lambsquarters (Chenopodium album, CHEAL); experiment: as above; details: post-emerge, 14 days after application, rating scale 0-100
Method in brief: as §3

[13] = tested on: green foxtail (Setaria viridis, SETVI); experiment: as above; details: post-emerge, 14 days after application, rating scale 0-100
Method in brief: as §3

[14] = tested on: large crabgrass (Digitaria sanguinalis, DIGSA); experiment: Pre-emerge test, greenhouse herbicide activity screening; details: phytotoxicity rating 0-100, 14 days after application
Method in brief: (§4)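 Compounds in acetone were track-sprayed at 15–1000 g ai/ha: pre-emergence onto soil sown the previous day, then top-watered to incorporate and later bottom-watered; post-emergence onto 2–3 leaf plants with 0.25% v/v surfactant, bottom-watered only. Ratings on a 0–100 phytotoxicity scale were taken at day 14.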

[15] = tested on: ivyleaf morningglory (Ipomoea hederacea, IPOHE); experiment: as above; details: phytotoxicity rating 0-100, 14 days after application
Method in brief: as §4

[16] = tested on: barnyardgrass (Echinochloa crus-galli, ECHCG); experiment: as above; details: phytotoxicity rating 0-100, 14 days after application
Method in brief: as §4

[17] = tested on: common ragweed (Ambrosia artemisizfolia L., AMBEL); experiment: as above; details: phytotoxicity rating 0-100, 14 days after application
Method in brief: as §4

[18] = tested on: johnsongrass (Sorghum halepense, SORHA); experiment: as above; details: phytotoxicity rating 0-100, 14 days after application
Method in brief: as §4

[19] = tested on: velvetleaf (Abutilon theophrasti, ABUTH); experiment: as above; details: phytotoxicity rating 0-100, 14 days after application
Method in brief: as §4

[20] = tested on: sicklepod (Cassia obtusifolia, CASOB); experiment: as above; details: phytotoxicity rating 0-100, 14 days after application
Method in brief: as §4

[21] = tested on: lambsquarters (Chenopodium album, CHEAL); experiment: as above; details: phytotoxicity rating 0-100, 14 days after application
Method in brief: as §4

[22] = tested on: green foxtail (Setaria viridis, SETVI); experiment: as above; details: phytotoxicity rating 0-100, 14 days after application
Method in brief: as §4

[23] = tested on: redroot pigweed (Amaranthus retroflexus, AMARE); experiment: as above; details: phytotoxicity rating 0-100, 14 days after application
Method in brief: as §2

CC(C)Oc1c(Cl)cc(F)c(-n2c(=O)cc(C(F)(F)F)n(C)c2=O)c1NC(=O)c1ccc2ccccc2c1 [2-197]
0: Pre-emerge Herbicidal Activity CORN ([4]; 63 g ai/ha) | Pre-emerge Herbicidal Activity CORN ([4]; 250 g ai/ha) | phytotoxicity rating ECHCG ([7]; 63 g ai/ha) | phytotoxicity rating SORHA ([9]; 63 g ai/ha) | Pre-emerge Herbicidal Activity ECHCG ([16]; 63 g ai/ha) | Pre-emerge Herbicidal Activity SORHA ([18]; 63 g ai/ha) | Pre-emerge Herbicidal Activity CASOB ([20]; 63 g ai/ha)
50: phytotoxicity rating SORHA ([9]; 250 g ai/ha) | Pre-emerge Herbicidal Activity IPOHE ([15]; 250 g ai/ha) | Pre-emerge Herbicidal Activity ECHCG ([16]; 250 g ai/ha) | Pre-emerge Herbicidal Activity CASOB ([20]; 250 g ai/ha) | Pre-emerge Herbicidal Activity SETVI ([22]; 63 g ai/ha)
10: phytotoxicity rating CORN (crop damage) ([2]; 63 g ai/ha) | phytotoxicity rating CORN (crop damage) ([2]; 250 g ai/ha) | phytotoxicity rating DIGSA ([5]; 63 g ai/ha) | phytotoxicity rating DIGSA ([5]; 250 g ai/ha) | phytotoxicity rating SETVI ([13]; 63 g ai/ha)
30: phytotoxicity rating RICE (crop damage) ([1]; 250 g ai/ha) | Pre-emerge Herbicidal Activity RICE ([3]; 63 g ai/ha) | Pre-emerge Herbicidal Activity IPOHE ([15]; 63 g ai/ha)
20: phytotoxicity rating RICE (crop damage) ([1]; 63 g ai/ha) | phytotoxicity rating ECHCG ([7]; 250 g ai/ha) | phytotoxicity rating SETVI ([13]; 250 g ai/ha) | Pre-emerge Herbicidal Activity SORHA ([18]; 250 g ai/ha)
90: phytotoxicity rating IPOHE ([6]; 250 g ai/ha) | Pre-emerge Herbicidal Activity ABUTH ([19]; 63 g ai/ha)
80: Pre-emerge Herbicidal Activity RICE ([3]; 250 g ai/ha) | phytotoxicity rating CASOB ([11]; 63 g ai/ha) | phytotoxicity rating CASOB ([11]; 250 g ai/ha) | Pre-emerge Herbicidal Activity DIGSA ([14]; 63 g ai/ha)
100: phytotoxicity rating IPOHE ([6]; 63 g ai/ha) | phytotoxicity rating AMARE ([8]; 63 g ai/ha, rating scale 0-100 (0 no damage, 100 complete death)) | phytotoxicity rating AMARE ([8]; 250 g ai/ha, rating scale 0-100) | phytotoxicity rating ABUTH ([10]; 63 g ai/ha) | phytotoxicity rating ABUTH ([10]; 250 g ai/ha) | phytotoxicity rating CHEAL ([12]; 63 g ai/ha) | phytotoxicity rating CHEAL ([12]; 250 g ai/ha) | Pre-emerge Herbicidal Activity DIGSA ([14]; 250 g ai/ha) | Pre-emerge Herbicidal Activity AMBEL ([17]; 63 g ai/ha) | Pre-emerge Herbicidal Activity AMBEL ([17]; 250 g ai/ha) | Pre-emerge Herbicidal Activity ABUTH ([19]; 250 g ai/ha) | Pre-emerge Herbicidal Activity CHEAL ([21]; 63 g ai/ha) | Pre-emerge Herbicidal Activity CHEAL ([21]; 250 g ai/ha) | Pre-emerge Herbicidal Activity SETVI ([22]; 250 g ai/ha) | Pre-emerge Herbicidal Activity AMARE ([23]; 63 g ai/ha) | Pre-emerge Herbicidal Activity AMARE ([23]; 250 g ai/ha)
